Patent US20230059463A1, “3-(2-BROMO-4-ALKYNYL-6-ALKOXYPHENYL)-SUBSTITUTED 5-SPIROCYCLOHEXYL-3-PYRROLIN-2-ONES AND THEIR USE AS HERBICIDES” (Bayer Aktiengesellschaft, priority 2019, published 2023)

Legend:
Assay type in all cases: in vivo
Digitaria sanguinalis = test: Post-emergence herbicidal effect; conditions: 80 g/ha, post-emergence at one-leaf stage, assessed visually after about 3 weeks; 100% = plants have died, 0% = like control plants
Procedure: (§1) Seeds of monocotyledonous and dicotyledonous weed and crop plants are laid out in sandy loam soil in wood-fiber pots, covered with soil and cultivated in a greenhouse under good growth conditions. 2 to 3 weeks after sowing, the test plants are treated at the one-leaf stage. The compounds of the invention, formulated in the form of wettable powders (WP) or as emulsion concentrates (EC), are then sprayed onto the green parts of the plants as aqueous suspension or emulsion at a water application rate equating to 600 to 800 l/ha with addition of 0.2% wetting agent. After the test plants have been left to stand in the greenhouse under optimal growth conditions for about 3 weeks, the action of the preparations is assessed visually in comparison to untreated controls (herbicidal action in per cent (%): 100% activity=the plants have died, 0% activity=like control plants).

Setaria viridis [1] = test: Post-emergence herbicidal effect; conditions: 80 g/ha, post-emergence at one-leaf stage, assessed visually after about 3 weeks; 100% = plants have died, 0% = like control plants
Procedure: as §1

Echinochloa crus-galli [2] = test: Post-emergence herbicidal effect; conditions: 80 g/ha, post-emergence at one-leaf stage, assessed visually after about 3 weeks; 100% = plants have died, 0% = like control plants
Procedure: as §1

Alopecurus myosuroides [3] = test: Post-emergence herbicidal effect; conditions: 80 g/ha, post-emergence at one-leaf stage, assessed visually after about 3 weeks; 100% = plants have died, 0% = like control plants
Procedure: as §1

Lolium rigidum [4] = test: Post-emergence herbicidal effect; conditions: 80 g/ha, post-emergence at one-leaf stage, assessed visually after about 3 weeks; 100% = plants have died, 0% = like control plants
Procedure: as §1

Setaria viridis [5] = test: Pre-emergence herbicidal effect; conditions: 80 g/ha, scored visually after 3 weeks, 100% = plants have died, 0% = like control plants
From the text: (§2) Seeds of monocotyledonous and dicotyledonous weed plants and crop plants are laid out in sandy loam soil in wood-fiber pots and covered with soil. The compounds of the invention, formulated in the form of wettable powders (WP) or as emulsion concentrates (EC), are then applied to the surface of the covering soil as aqueous suspension or emulsion at a water application rate equating to 600 to 800 L/ha with addition of 0.2% wetting agent.
(§3) After the treatment, the pots are placed in a greenhouse and kept under good growth conditions for the trial plants. The damage to the test plants is scored visually after a test period of 3 weeks by comparison with untreated controls (herbicidal activity in percent (%): 100% activity=the plants have died, 0% activity=like control plants).

Alopecurus myosuroides [6] = test: Pre-emergence herbicidal effect; conditions: 80 g/ha, scored visually after 3 weeks, 100% = plants have died, 0% = like control plants
From the text: as §2, §3

Lolium rigidum [7] = test: Pre-emergence herbicidal effect; conditions: 80 g/ha, scored visually after 3 weeks, 100% = plants have died, 0% = like control plants
From the text: as §2, §3

Hordeum murinum [8] = test: Post-emergence herbicidal effect; conditions: 80 g/ha, post-emergence at one-leaf stage, assessed visually after about 3 weeks; 100% = plants have died, 0% = like control plants
Procedure: as §1

Avena fatua = test: Pre-emergence herbicidal effect; conditions: 80 g/ha, scored visually after 3 weeks, 100% = plants have died, 0% = like control plants
From the text: as §2, §3

Echinochloa crus-galli [9] = test: Pre-emergence herbicidal effect; conditions: 80 g/ha, scored visually after 3 weeks, 100% = plants have died, 0% = like control plants
From the text: as §2, §3

Hordeum murinum [10] = test: Pre-emergence herbicidal effect; conditions: 80 g/ha, scored visually after 3 weeks, 100% = plants have died, 0% = like control plants
From the text: as §2, §3

SMILES	Post-emergence action against DIGSA (herbicidal action in per cent) (Digitaria sanguinalis)	Post-emergence action against SETVI (herbicidal action in per cent) (Setaria viridis [1])	Post-emergence action against ECHCG (herbicidal action in per cent) (Echinochloa crus-galli [2])	Post-emergence action against ALOMY (herbicidal action in per cent) (Alopecurus myosuroides [3])	Post-emergence action against LOLRI (herbicidal action in per cent) (Lolium rigidum [4])	Pre-emergence action against SETVI (herbicidal activity in percent) (Setaria viridis [5])	Pre-emergence action against ALOMY (herbicidal activity in percent) (Alopecurus myosuroides [6])	Pre-emergence action against LOLRI (herbicidal activity in percent) (Lolium rigidum [7])	Post-emergence action against HORMU (herbicidal action in per cent) (Hordeum murinum [8])	Pre-emergence action against AVEFA (herbicidal activity in percent) (Avena fatua)	Pre-emergence action against ECHCG (herbicidal activity in percent) (Echinochloa crus-galli [9])	Pre-emergence action against HORMU (herbicidal activity in percent) (Hordeum murinum [10])
CCOC(=O)OC1=C(c2c(Br)cc(C#CBr)cc2OC)C(=O)NC12CCCC(OCCOC)C2 (stereo not shown) [Example 1.1.25]	80%	90%	90%	90%	80%	100%	80%	90%	–	–	–	–
CC#Cc1cc(Br)c(C2=C(OC(=O)OCC)C3(CCCC(OCCOC)C3)NC2=O)c(OC)c1 (stereo not shown) [Example 1.1.15]	–	100%	100%	100%	100%	100%	100%	100%	100%	100%	100%	100%
C#Cc1cc(Br)c(C2=C(OC(=O)C(C)C)C3(CCCC(OCCC)C3)NC2=O)c(OC)c1 (stereo not shown) [Example 1.1.04]	90%	100%	80%	90%	80%	100%	100%	100%	–	90%	100%	90%
CC#Cc1cc(Br)c(C2=C(O)C3(CCCC(OCCC)C3)NC2=O)c(OC)c1 (stereo not shown) [Example 1.1.09, 3-[2-Bromo-6-methoxy-4-(prop-1-yn-1-yl)phenyl]-7-propoxy-1-azaspiro[4.5]decane-2,4-dione]	–	90%	90%	90%	90%	100%	100%	100%	100%	100%	100%	100%
CC#Cc1cc(Br)c(C2=C(OC(=O)C(C)C)C3(CCCC(OCCC)C3)NC2=O)c(OC)c1 (stereo not shown) [Example 1.1.12]	–	–	–	–	–	100%	100%	100%	–	90%	100%	100%
CC#Cc1cc(Br)c(C2=C(OC(=O)OCC)C3(CCCC(OCCC)C3)NC2=O)c(OC)c1 (stereo not shown) [Example 1.1.11, 3-[2-Bromo-6-methoxy-4-(prop-1-yn-1-yl)phenyl]-2-oxo-7-propoxy-1-azaspiro[4.5]dec-3-en-4-yl ethyl carbonate]	–	–	–	–	–	–	–	–	100%	–	–	–
C#Cc1cc(Br)c(C2=C(O)C3(CCCC(OCCOC)C3)NC2=O)c(OC)c1 (stereo not shown) [Example 1.1.05]	80%	90%	80%	90%	80%	100%	90%	100%	–	90%	100%	90%
COCCOC1CCCC2(C1)NC(=O)C(c1c(Br)cc(C#CBr)cc1OC)=C2O (stereo not shown) [Example 1.1.23]	80%	100%	90%	90%	80%	100%	90%	90%	–	–	–	–
C#Cc1cc(Br)c(C2=C(OC(=O)OCC)C3(CCCC(OCCOC)C3)NC2=O)c(OC)c1 (stereo not shown) [Example 1.1.07]	90%	90%	80%	80%	80%	100%	90%	100%	–	90%	100%	90%
C#Cc1cc(Br)c(C2=C(OC(=O)OCC)C3(CCCC(OCCC)C3)NC2=O)c(OC)c1 (stereo not shown) [Example 1.1.03]	90%	100%	90%	80%	80%	100%	90%	100%	–	90%	100%	90%
C#Cc1cc(Br)c(C2=C(OC(=O)C(C)C)C3(CCCC(OCCOC)C3)NC2=O)c(OC)c1 (stereo not shown) [Example 1.1.08]	90%	90%	80%	90%	90%	100%	100%	100%	–	90%	100%	90%
